The source made the active and inactive calls. No cut-off for these calls is given here.
What was measured:
[1] = Stability of compound assessed as porcine liver esterase mediated propofol release by measuring half life at 1 mg/ml by HPLC analysis; assay type: ADME, Sus scrofa; settings: pig, isolated protein
[2] = target: T1, Sodium channel protein type 10 subunit alpha (Homo sapiens, UniProt Q9Y5Y9); test: Binding affinity to Nav1.8 (unknown origin) expressed in HEK293T cells assessed as retention time of compound at 1 mg/ml by cell membrane chromatography; assay type: cell membranes
Target sequence in this assay (Q9Y5Y9 whole entry, looked up, the tested form may be a part): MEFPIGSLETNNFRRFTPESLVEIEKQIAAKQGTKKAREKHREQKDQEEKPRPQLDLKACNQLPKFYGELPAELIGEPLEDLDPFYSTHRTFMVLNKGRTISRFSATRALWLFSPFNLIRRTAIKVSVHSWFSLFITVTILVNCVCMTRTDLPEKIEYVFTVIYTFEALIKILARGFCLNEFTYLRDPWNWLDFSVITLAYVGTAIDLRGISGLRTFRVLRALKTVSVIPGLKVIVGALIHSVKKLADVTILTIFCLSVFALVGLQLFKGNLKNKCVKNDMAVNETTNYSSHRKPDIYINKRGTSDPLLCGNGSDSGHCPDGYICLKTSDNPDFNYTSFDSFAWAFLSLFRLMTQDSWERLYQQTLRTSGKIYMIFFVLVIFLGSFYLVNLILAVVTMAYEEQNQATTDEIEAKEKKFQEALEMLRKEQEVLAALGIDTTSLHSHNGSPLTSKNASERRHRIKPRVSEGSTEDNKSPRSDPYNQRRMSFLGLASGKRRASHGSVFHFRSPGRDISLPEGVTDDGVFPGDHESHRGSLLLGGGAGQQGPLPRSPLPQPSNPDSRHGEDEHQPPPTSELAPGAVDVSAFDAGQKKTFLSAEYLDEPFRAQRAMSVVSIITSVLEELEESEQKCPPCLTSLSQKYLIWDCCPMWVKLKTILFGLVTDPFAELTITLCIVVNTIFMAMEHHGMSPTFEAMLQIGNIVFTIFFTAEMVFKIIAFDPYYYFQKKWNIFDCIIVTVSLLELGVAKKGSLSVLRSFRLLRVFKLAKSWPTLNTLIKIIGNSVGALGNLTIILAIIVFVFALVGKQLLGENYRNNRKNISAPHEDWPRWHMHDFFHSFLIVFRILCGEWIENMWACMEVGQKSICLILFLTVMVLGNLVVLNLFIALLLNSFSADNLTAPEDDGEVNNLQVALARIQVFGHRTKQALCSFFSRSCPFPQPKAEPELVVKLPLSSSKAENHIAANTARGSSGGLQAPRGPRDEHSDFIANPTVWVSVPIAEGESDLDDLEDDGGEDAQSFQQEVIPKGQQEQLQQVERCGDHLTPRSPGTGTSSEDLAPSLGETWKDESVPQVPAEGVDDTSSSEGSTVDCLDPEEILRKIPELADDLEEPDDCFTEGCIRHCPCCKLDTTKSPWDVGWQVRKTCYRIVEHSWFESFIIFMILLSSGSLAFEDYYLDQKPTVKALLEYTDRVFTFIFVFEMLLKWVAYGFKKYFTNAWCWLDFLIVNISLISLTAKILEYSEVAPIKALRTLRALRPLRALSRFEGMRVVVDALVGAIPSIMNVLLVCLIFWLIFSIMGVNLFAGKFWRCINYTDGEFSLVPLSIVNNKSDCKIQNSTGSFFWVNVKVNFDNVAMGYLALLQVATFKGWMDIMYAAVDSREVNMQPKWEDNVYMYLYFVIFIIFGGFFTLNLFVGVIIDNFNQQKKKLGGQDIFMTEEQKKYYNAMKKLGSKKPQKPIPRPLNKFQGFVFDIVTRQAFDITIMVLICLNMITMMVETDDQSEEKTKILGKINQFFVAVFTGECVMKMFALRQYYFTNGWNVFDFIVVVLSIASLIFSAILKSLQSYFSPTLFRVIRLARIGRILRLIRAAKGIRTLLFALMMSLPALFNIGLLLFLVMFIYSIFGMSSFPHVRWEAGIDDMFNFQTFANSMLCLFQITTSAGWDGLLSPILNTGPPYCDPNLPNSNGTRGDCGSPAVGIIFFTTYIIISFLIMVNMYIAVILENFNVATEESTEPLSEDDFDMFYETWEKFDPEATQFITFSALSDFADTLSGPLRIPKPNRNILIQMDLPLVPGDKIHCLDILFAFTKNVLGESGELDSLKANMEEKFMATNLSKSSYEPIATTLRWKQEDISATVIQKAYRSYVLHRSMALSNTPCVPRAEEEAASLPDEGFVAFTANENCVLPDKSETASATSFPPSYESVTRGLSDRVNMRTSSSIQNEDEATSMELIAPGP

Rattus norvegicus = test: Analgesic activity in Sprague-Dawley rat model of thermal nociception assessed as increase in hind-paw withdrawal latency at 19 mg/kg administered as continuous infusion followed by maintenance at 3.25 mg/kg/min for 0 to 20 mins, 2.5 mg/kg/min for 20 to 30 mins and 2 mg/kg/min for 30 to 60 mins; assay type: functional, organism-based; settings: route par, TDE = time-dependent effect
[3] = (§1) Toxicity in Sprague-Dawley rat assessed as effect on minute ventilation box at 19 mg/kg administered as continuous infusion followed by maintenance at 3.25 mg/kg/min for 0 to 20 mins, 2.5 mg/kg/min for 20 to 30 mins and 2 mg/kg/min for 30 to 60 mins and measured every 5 mins for 60 mins by whole-body plethysmography; assay type: organism-based; settings: in vivo, other, 1 h, route par
[4] = as §1, with “amount of respiration” for “minute ventilation box”; assay type: organism-based; settings: in vivo, other, 1 h, route par
[5] = Toxicity in Sprague-Dawley rat assessed as change in P-R interval at 19 mg/kg administered as continuous infusion followed by maintenance at 3.25 mg/kg/min for 0 to 20 mins, 2.5 mg/kg/min for 20 to 30 mins and 2 mg/kg/min for 30 to 60 mins and measured between 30 to 50 mins by electrocardiogram recording; assay type: organism-based; settings: in vivo, other, time 30-50 min, route par
[6] = Toxicity in Sprague-Dawley rat assessed as alterations in QRS complex duration at 19 mg/kg administered as continuous infusion followed by maintenance at 3.25 mg/kg/min for 0 to 20 mins, 2.5 mg/kg/min for 20 to 30 mins and 2 mg/kg/min for 30 to 60 mins by electrocardiogram recording; assay type: organism-based; settings: in vivo, other, 1 h, route par
[7] = Toxicity in ICR mouse assessed as effect on biochemical parameters at 1.5 times ED50, iv administered as single dose; assay type: organism-based; settings: in vivo
[8] = Toxicity in Sprague-Dawley rat assessed as effect on AST level at 19 mg/kg administered as continuous infusion followed by maintenance at 3.25 mg/kg/min for 0 to 20 mins, 2.5 mg/kg/min for 20 to 30 mins and 2 mg/kg/min for 30 to 60 mins; assay type: organism-based; settings: in vivo, other, 1 h, route par
[9] = Toxicity in Sprague-Dawley rat assessed as effect on alpha-HBDH level at 19 mg/kg administered as continuous infusion followed by maintenance at 3.25 mg/kg/min for 0 to 20 mins, 2.5 mg/kg/min for 20 to 30 mins and 2 mg/kg/min for 30 to 60 mins; assay type: organism-based; settings: in vivo, other, 1 h, route par
[10] = Toxicity in Sprague-Dawley rat assessed as ALT level at 19 mg/kg administered as continuous infusion followed by maintenance at 3.25 mg/kg/min for 0 to 20 mins, 2.5 mg/kg/min for 20 to 30 mins and 2 mg/kg/min for 30 to 60 mins; assay type: organism-based; settings: in vivo, other, 1 h, route par
[11] = Toxicity in Sprague-Dawley rat assessed as urea level at 19 mg/kg administered as continuous infusion followed by maintenance at 3.25 mg/kg/min for 0 to 20 mins, 2.5 mg/kg/min for 20 to 30 mins and 2 mg/kg/min for 30 to 60 mins; assay type: organism-based; settings: in vivo, other, 1 h, route par
[12] = Toxicity in ICR mouse assessed as histopathological changes in heart at 1.5 times ED50, iv administered as single dose and measured after 14 days by H and E staining based analysis; assay type: organism-based; settings: in vivo, 336 h, time 14 day
[13] = Toxicity in Sprague-Dawley rat assessed as histopathological changes in liver at 19 mg/kg administered as continuous infusion followed by maintenance at 3.25 mg/kg/min for 0 to 20 mins, 2.5 mg/kg/min for 20 to 30 mins and 2 mg/kg/min for 30 to 60 mins and measured after 14 days by H and E staining based analysis; assay type: organism-based; settings: in vivo, other, 336 h, route par, time 14 day
Cytochrome P450 2D6 = Cytochrome P450 2D6 (Homo sapiens, UniProt P10635); test: Inhibition of CYP2D6 (unknown origin) using dextromethorphan as substrate at 10 uM; assay type: ADME
Sequence of Cytochrome P450 2D6 (P10635 whole entry): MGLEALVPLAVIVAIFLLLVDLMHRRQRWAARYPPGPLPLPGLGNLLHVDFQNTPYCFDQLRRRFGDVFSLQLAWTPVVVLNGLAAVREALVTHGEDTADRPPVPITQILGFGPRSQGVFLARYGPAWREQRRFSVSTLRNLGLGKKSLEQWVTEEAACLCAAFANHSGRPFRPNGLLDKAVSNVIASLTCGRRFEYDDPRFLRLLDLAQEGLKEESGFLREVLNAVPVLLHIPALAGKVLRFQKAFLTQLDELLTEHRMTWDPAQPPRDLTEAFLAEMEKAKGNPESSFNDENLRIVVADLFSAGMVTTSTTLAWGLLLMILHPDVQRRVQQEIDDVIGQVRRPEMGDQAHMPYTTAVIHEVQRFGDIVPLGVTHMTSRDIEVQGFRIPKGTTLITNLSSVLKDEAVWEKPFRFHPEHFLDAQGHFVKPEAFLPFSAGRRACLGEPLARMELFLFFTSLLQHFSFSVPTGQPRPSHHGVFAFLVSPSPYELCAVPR

[14] = Stability of compound in 0.1M PBS at 1 mg/ml measured upto 360 mins by HPLC analysis; assay type: physicochemical; settings: buffer, 6 h
[15] = Drug metabolism in rat liver microsomes assessed as propofol release by measuring half life at 1 mg/ml measured upto 360 mins by LC-MS analysis; assay type: ADME, Microsome; settings: 6 h
[16] = Drug metabolism in human liver microsomes assessed as propofol release by measuring half life at 1 mg/ml measured upto 360 mins by LC-MS analysis; assay type: ADME, Microsome; settings: 6 h
Cocaine esterase = target: T2, Cocaine esterase (Homo sapiens, UniProt O00748); test: Drug metabolism assessed as human CES2-mediated propofol release at 1 mg/ml measured upto 240 mins by LC-MS analysis; assay type: ADME; settings: 4 h
T2 sequence (O00748 whole entry): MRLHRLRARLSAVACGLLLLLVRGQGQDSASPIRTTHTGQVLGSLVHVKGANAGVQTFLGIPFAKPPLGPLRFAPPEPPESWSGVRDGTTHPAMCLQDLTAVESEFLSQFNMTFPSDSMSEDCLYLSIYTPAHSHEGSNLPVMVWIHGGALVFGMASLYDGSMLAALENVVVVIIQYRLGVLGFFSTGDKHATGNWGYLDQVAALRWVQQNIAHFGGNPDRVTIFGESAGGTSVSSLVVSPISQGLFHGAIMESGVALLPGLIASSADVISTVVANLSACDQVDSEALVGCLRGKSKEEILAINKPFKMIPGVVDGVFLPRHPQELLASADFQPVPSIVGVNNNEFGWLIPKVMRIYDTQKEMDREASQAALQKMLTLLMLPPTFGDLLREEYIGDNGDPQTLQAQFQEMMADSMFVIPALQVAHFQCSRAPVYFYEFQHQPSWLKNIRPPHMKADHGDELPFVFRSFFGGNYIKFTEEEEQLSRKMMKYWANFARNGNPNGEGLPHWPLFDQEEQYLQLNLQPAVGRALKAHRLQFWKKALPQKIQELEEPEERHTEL

[17] = target: GABA-A receptor; alpha-1/beta-2/gamma-2 (Homo sapiens) (UniProt P14867+P47870+P18507); test: Agonist activity at alpha1beta2gamma2 GABA-A receptor (unknown origin) at 10 uM at -70 mV holding potential by electrophysiological recording; assay type: protein-complex assay
[18] = target: T1, Sodium channel protein type 10 subunit alpha; test: Inhibition of Nav1.8 channel (unknown origin) at half inactivation state at -120 mV conditioning pulse by voltage clamp electrophysiological recording
Target sequence in this assay (Q9Y5Y9 whole entry, the tested form may be a part): as the sequence (Q9Y5Y9 whole entry, looked up, the tested form may be a part) above

[19] = target: T3, Sodium channel protein type 9 subunit alpha (Homo sapiens, UniProt Q15858); test: Inhibition of Nav1.7 channel (unknown origin) at half inactivation state at -120 mV conditioning pulse by voltage clamp electrophysiological recording
T3 sequence (Q15858 whole entry): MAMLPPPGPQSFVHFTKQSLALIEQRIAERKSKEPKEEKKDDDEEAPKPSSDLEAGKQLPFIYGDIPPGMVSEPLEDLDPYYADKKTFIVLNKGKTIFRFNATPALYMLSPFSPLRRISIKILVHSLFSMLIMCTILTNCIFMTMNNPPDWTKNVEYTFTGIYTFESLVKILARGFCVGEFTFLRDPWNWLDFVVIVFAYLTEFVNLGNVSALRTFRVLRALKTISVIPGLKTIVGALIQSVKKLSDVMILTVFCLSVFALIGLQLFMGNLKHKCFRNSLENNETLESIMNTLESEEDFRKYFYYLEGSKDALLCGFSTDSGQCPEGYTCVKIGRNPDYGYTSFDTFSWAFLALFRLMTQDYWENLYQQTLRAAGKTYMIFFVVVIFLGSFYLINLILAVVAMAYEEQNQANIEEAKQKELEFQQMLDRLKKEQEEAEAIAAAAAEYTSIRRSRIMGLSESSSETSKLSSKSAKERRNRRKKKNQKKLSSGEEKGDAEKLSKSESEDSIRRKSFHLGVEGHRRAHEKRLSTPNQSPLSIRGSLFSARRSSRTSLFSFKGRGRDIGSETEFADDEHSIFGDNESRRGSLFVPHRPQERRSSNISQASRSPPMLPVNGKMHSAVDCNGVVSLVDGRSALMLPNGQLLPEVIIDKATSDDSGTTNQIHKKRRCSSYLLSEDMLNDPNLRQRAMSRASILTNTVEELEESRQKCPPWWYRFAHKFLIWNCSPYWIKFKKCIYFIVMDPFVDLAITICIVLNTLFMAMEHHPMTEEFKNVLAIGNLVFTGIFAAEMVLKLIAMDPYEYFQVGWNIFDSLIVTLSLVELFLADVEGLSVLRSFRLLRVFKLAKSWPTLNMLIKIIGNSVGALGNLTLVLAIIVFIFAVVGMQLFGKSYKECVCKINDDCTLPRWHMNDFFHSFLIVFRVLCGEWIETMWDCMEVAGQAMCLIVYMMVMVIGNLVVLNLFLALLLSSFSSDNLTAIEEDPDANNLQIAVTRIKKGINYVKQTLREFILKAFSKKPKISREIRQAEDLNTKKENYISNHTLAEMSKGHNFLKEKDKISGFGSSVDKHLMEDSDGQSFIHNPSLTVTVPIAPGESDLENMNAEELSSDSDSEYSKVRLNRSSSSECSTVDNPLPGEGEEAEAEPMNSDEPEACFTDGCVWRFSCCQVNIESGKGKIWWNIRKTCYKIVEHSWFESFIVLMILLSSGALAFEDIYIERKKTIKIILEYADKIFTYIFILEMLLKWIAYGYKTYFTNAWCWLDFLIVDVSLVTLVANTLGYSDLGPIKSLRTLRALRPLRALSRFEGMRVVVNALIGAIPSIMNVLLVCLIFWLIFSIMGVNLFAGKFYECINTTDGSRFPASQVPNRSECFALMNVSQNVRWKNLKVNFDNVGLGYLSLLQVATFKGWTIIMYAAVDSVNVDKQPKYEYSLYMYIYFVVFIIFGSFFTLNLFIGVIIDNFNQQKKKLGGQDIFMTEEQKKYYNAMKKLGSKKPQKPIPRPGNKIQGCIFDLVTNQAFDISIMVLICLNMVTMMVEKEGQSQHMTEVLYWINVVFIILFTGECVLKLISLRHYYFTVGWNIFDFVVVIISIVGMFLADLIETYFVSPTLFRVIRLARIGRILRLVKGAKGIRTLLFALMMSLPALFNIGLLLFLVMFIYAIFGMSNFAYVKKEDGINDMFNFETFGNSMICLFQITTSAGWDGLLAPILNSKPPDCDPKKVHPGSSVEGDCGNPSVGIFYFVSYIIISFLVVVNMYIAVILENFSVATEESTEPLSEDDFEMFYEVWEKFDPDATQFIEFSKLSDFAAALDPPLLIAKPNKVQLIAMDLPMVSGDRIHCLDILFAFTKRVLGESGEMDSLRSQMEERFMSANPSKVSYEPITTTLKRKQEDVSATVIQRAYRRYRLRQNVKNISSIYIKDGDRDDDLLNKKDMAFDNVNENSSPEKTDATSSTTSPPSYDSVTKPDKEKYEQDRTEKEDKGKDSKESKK

[20] = target: T3, Sodium channel protein type 9 subunit alpha; test: Inhibition of Nav1.7 channel (unknown origin) at resting state at -120 mV conditioning pulse by voltage clamp electrophysiological recording
[21] = target: Sodium channel protein type 5 subunit alpha (Homo sapiens, UniProt Q14524); test: Inhibition of Nav1.5 channel (unknown origin) at half inactivation state at -120 mV conditioning pulse by voltage clamp electrophysiological recording; assay type: toxicity
DRG neuron = test: Modulation of CFA-induced male ICR mouse DRG neuron excitability assessed as reduction in resting membrane potential at 10 uM by whole cell […] assay; assay type: functional, cell-based

CCN(CC)CCOC(=O)Oc1c(C(C)C)cccc1C(C)C.Cl
t1/2 [1]: 8.609 min | Retention time [2]: 112 min | Activity (Rattus norvegicus): Tde | Activity [3]: Non-Toxic | Activity [4]: Non-Toxic | Activity [5]: Toxic | Activity [6]: Non-Toxic | Activity [7]: Non-Toxic | Activity [8]: Non-Toxic | Activity [9]: Non-Toxic | Activity [10]: 52.47 U/L | Activity [11]: 11.03 mmol/L | Activity [12]: Non-Toxic | Activity [13]: Non-Toxic | inhibition (INH) (Cytochrome P450 2D6): Not Active | Stability [14]: Stable | t1/2 [15]: 81.09 min | t1/2 [16]: 54.63 min | Drug metabolism (Cocaine esterase): Metabolite_Detected | Activity [17]: inactive | IC50 [18]: 1.92 µM | IC50 [19]: 7.43 µM | IC50 [20]: > 30 µM | IC50 [21]: 20.5 µM | Activity (DRG neuron): inactive

Source: ChEMBL document CHEMBL5523756, “Molecular Transformers: Adaptive Multitarget Ligands for Esterase-Induced Transition from Analgesics to Anesthetics” (J Med Chem, 2024)
